Data on three compounds can be found in patent US12715851B2, “4′-substituted analogues of fisetin and their use in the treatment of cancer” (Stellenbosch University, priority 2020, dated 2026).

Data set [1] deals with a range of cancer cell lines. To be noted: reported in the literature; cited from earlier work.
The nature of data set [2]: Acute toxicity, fed orally for two weeks. The data set is classed as in vivo. To be noted: Fisetin 50 mg/kg, 3c 25 and 50 mg/kg body weight. Here is the method: Fisetin analogue 3c was used to assess the potential toxicity of these analogues in a pre-clinical model. To test the acute toxicity, Fisetin (50 mg/kg body weight), analogue 3c (25 mg/kg and 50 mg/kg body weight), and vehicle control (5% DMSO, 45% PEG-300 and 50% saline) was fed orally for two weeks. Abnormal clinical signs such as decreased motor activity, sensory reflection, body weight, food intake, and water intake were monitored during the treatment period. An increase in body weight was observed among all groups throughout the treatment period (FIG. 7A). […] This variation could be due to consistent frequency of dosage.

For data set [3], the system named is lipid peroxidation (MDA formation). Briefly: Hepatotoxicity: lipid peroxidation assay on microsomal liver fraction (TBARS). Type of data set: in vivo, swiss albino mice. To be noted: microsomal liver fraction of treated mice. Here is the method: (§1) Hepatotoxicity is considered to be one of the major challenges for drug development schemes. The liver is the primary organ for the metabolism or biotransformation of a given drug. To assess the hepatotoxicity of these compounds, the effects of Fisetin and analogue 3c on various hepatic enzymes was assessed.
(§2) A lipid peroxidation assay was performed on microsomal liver fraction and determined in terms of TBARS formation. […] The modulatory effects of Fisetin and analogue 3c were determined on the specific activities of cytochrome b5 reductase (Cytb5R) and cytochrome P450 reductase (CytP450R), phase I enzyme of xenobiotic metabolism. Fisetin and analogue 3c caused reduction in the specific activity of cytochrome b5 reductase. Fisetin decreased Cytb5R specific activity by 66% whereas analogue 3c (50 mg/kg) caused a 36% reduction in specific activity (FIG. 7F). An increase in specific activity of CytP450R by Fisetin and analogue 3c was observed. Fisetin and analogue 3c (50 mg/kg) increased the specific activity by 15% and 13%, respectively (FIG. 7G). Next, the specific activities of phase II enzymes, glutathione S-transferase (GST) and reduced glutathione (GSH) were measured. […] Fisetin and analogue 3c (50 mg/kg) caused a decrease in specific activity of GSH by 34% and 7%, respectively (FIG. 7I). […] These analogues are therefore likely to be effective and safe phytochemicals.

For data set [4], the system named is SOD. The experiment in a line: Hepatotoxicity: specific activity of SOD. Type of data set: in vivo, swiss albino mice. To be noted: liver of treated mice. The protocol: as §1, §2
In data set [5] the test system is cytochrome b5 reductase (Cytb5R). Briefly: Hepatotoxicity: specific activity of cytochrome b5 reductase. To be noted: 50 mg/kg orally, two weeks. Type of data set: in vivo, swiss albino mice. The protocol: as §1, §2
The subject of data set [6] is cytochrome P450 reductase (CytP450R). Briefly: Hepatotoxicity: specific activity of cytochrome P450 reductase. The data set is classed as in vivo, swiss albino mice. To be noted: 50 mg/kg orally, two weeks. The protocol:
as §1, §2

Data set [7] has as its system glutathione S-transferase (GST). Briefly: Hepatotoxicity: specific activity of glutathione S-transferase. To be noted: liver of treated mice. The data set is classed as in vivo, swiss albino mice. Here is the method: as §1, §2
The test system of data set [8] is reduced glutathione (GSH). Briefly: Hepatotoxicity: reduced glutathione. Type of data set: in vivo, swiss albino mice. To be noted: 50 mg/kg orally, two weeks. The protocol:
as §1, §2

The test system of data set [9] is B(a)P-induced lung carcinogenesis. The experiment in a line: B(a)P-induced lung carcinogenesis, Initiation and Promotion Protocols. Type of data set: in vivo, Swiss albino mice. The text has this:
To assess whether Fisetin and its 4-bromo-Fisetin analogue (Fisetin analogue 3c) have anticarcinogenesis activity and if any toxicity in terms of water and food consumption, and body weight, Benzo[a]pyrene [B(a)P] induced lung carcinogenesis in Swiss albino mice were employed in the study. Along with the antitumor activity of the agents, the body weight, food and water intake in different treatment groups were monitored on regular intervals and analysed.
There were six different treatment groups in the study including, (1) control, (2) B(a)P, (3) Fisetin+B(a)P, (4) Fisetin analogue 3c+B(a)P, (5) B(a)P+Fisetin and (6) B(a)P+Fisetin analogue 3c.
Groups 3 and 4 represent the Initiation Protocol (agents treatment started 1 week before carcinogen treatment and continued 1 week after the last dose of the carcinogen). Groups 5 and 6 represent the Promotion Protocol (agents treatment started after 3 weeks of the carcinogen treatment). The B(a)P was given orally twice a week for 4 weeks at 50 mg/kg body weight dose, whereas Fisetin and Fisetin analogue (3c) were administered orally at 25 mg/kg body weight thrice weekly (see FIG. 9).

The conditions of data set [10]: cited from earlier work.
For data set [11], the system named is 22rv1 prostate carcinoma cells. To be noted: retained on methylation of the 3-hydroxy group; cited from earlier work.

As to `O=C1C[C@@H](c2ccc(O)cc2)Oc2cc(O)cc(O)c21` [navingenin], the “activity against cancer cell lines compared to apigenin” value in data set [1] was “inactive”.

`O=c1c(O)c(-c2ccc(O)c(O)c2)oc2cc(O)ccc12` [Fisetin]: the “toxicity in mice, in words” value in data set [2] is on record as “did not cause toxicity”. The “MDA formation (TBARS)” value in data set [3] was “No significant change”. Also, the “specific activity of SOD” value in data set [4] is on record as “moderately induced”. Further, in data set [5], the “reduction in specific activity of cytochrome b5 reductase” value is on record as 66%. The “increase in specific activity of CytP450R” value in data set [6] is 15%. Further, in data set [7], the “specific activities of GST compared to the control group” value was “did not cause significant change”. Further, in data set [8], the “decrease in specific activity of GSH” value came out at 34%. In [9] (25 mg/kg orally thrice weekly), the “systemic toxicity during long-term application” value is recorded as “did not show any systemic toxicity” and the “tumorigenic features in lung histology (nucleus size, cytoplasmic content, alveoli)” value is “reversal of the tumorigenic features”. Further, in data set [9] (compared to the carcinogen treated group), the “tumor incidence, histopathology of H&E stained serial sections” value was “less”. Further, the “area or size of tumor lesions, in words” value in [9] (tumor initiation phase / initiation protocol) is listed as “not effective as compared to the analogue”. Moreover, in [9] (versus B(a)P group), the “tumor lesions per mouse and total number of lesions per group, in words” value is “strongly reduced”. In addition, the “pKa of the 4′-hydroxyl group” value in data set [10] is reported as ~ 9.4. Further, the “pKa of the 7-hydroxyl group” value in data set [10] (most acidic position) is ~ 7.3.

As for `COc1cc(-c2oc3ccccc3c(=O)c2O)cc(OC)c1OC` [TMFol], the “activity against 22rv1 prostate carcinoma cells” value in data set [11] was “low micromolar activity”.
